According to US8833457B2, “Sulfates and phosphates as allosteric effectors in mannanohydrolase enzyme breakers” (Baker Hughes Incorporated, priority 2011, dated 2014):

Test system: mannanohydrolase, GBW-22C
Assay: Viscosity reduction of borate-crosslinked guar gel by mannanohydrolase enzyme breaker with allosteric effector (Chandler HTHP 5500 Viscometer)
Type: biochemical
Settings: 150° F., 500 psi
Description: A solution was made comprising: 17 ppt of guar polymer, GW-3LDF; 1 gpt of clay stabilizer, Claytreat-3C; 1.5 gpt of buffer, BF-7L; 1 gpt of crosslinking agent, XLW-32; 1 gpt mannanohydrolase, GBW-22C, diluted 1/100 with distilled water; and 1 gpt of a 1% wt. solution of Na2SO4 (all components available from Baker Hughes Inc.). The solution was mixed with an overhead stirrer. 52 mL of crosslinked fluid was loaded on to a Chandler HTHP 5500 Viscometer and run at 500 psi, 150° F., and 100 s^−1 for an hour.
To compare the effects of phosphate and sulfate a solution was made comprising: 17 ppt of guar polymer, GW-3LDF; 1 gpt of clay stabilizer, Claytreat-3C; 1.5 gpt of buffer, BF-7L; 1 gpt of crosslinking agent, XLW-32; 1 gpt mannanohydrolase, GBW-22C, diluted 1/100 with distilled water; and 1 gpt of a 1% wt. solution of K2HPO4 (all components available from Baker Hughes Inc.).

## O=S(=O)([O-])[O-].[Na+].[Na+] [Na2SO4]
3 g/L versus 1 gpt 20% wt. Na2SO4 or 2 mg/L, 100 s^−1
  difference in enzyme activity between high and smaller concentrations of the effector (FIG. 3): does not appear to be a difference
17 ppt GW-3LDF guar, XLW-32 crosslinker, 1 gpt GBW-22C diluted 1/100, 1 gpt of 1% wt. Na2SO4, 100 s^−1, one hour
  effect of the effector on activity of the mannanohydrolase enzyme against the guar polymer (FIG. 3): drastically improves the activity of the mannanohydrolase enzyme
